Measurements reported in ChEMBL document CHEMBL1133935, “A novel phosphotyrosine mimetic 4'-carboxymethyloxy-3'-phosphonophenylalanine (Cpp): exploitation in the design of nonpeptide inhibitors of pp60(Src) SH2 domain” (Bioorg Med Chem Lett, 2001).

How the values were obtained:
[1] = biological target: Proto-oncogene tyrosine-protein kinase Src (Homo sapiens, UniProt P12931); assay: Inhibition of binding to Src SH2 domain
[2] = biological target: Tyrosine-protein kinase Yes (Homo sapiens, UniProt P07947); assay: Inhibition of binding to Yes SH2 domain
Tyrosine-protein kinase Yes, sequence (P07947 whole entry, the tested form may be a part): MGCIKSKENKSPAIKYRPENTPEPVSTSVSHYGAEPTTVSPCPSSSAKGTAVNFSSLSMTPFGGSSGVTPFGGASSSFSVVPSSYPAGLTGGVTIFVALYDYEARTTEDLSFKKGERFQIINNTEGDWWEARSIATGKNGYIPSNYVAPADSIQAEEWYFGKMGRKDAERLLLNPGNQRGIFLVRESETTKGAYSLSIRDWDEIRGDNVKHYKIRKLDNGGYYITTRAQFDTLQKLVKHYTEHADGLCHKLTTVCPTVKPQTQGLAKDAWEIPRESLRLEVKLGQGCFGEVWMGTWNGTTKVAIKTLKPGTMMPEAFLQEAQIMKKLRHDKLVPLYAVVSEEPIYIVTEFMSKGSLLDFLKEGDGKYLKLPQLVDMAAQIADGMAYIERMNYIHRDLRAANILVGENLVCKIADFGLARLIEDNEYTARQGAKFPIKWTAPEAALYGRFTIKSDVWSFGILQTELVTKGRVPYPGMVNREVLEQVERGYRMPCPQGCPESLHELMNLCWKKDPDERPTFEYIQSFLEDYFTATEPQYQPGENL

Oryctolagus cuniculus = species: Oryctolagus cuniculus; assay: Inhibition of rabbit osteoclast-mediated resorption of dentine at 100 uM; 0-35% inhibition; format: functional
[3] = biological target: T1, Tyrosine-protein kinase ZAP-70 (Homo sapiens, UniProt P43403); assay: Inhibition of binding to Zap70 protein kinase
T1 sequence (P43403 whole entry): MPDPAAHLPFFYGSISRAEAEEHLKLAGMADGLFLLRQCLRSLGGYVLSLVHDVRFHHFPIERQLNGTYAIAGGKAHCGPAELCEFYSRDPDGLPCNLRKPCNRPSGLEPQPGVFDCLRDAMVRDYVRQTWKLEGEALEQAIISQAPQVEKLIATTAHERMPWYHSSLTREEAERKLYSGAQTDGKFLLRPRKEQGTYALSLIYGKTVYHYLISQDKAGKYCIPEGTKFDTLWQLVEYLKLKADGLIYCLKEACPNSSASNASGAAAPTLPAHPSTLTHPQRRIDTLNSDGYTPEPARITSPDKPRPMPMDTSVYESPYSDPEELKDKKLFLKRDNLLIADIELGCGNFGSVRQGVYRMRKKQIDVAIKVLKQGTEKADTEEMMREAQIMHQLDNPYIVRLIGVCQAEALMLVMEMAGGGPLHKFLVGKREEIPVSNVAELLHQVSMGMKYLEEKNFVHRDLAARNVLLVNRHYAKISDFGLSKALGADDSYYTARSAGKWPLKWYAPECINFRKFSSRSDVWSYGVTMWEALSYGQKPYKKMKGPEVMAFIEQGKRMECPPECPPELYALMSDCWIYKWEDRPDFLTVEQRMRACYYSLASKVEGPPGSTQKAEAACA

Proto-oncogene tyrosine-protein kinase Src, sequence (P12931 2-536 limits assumed): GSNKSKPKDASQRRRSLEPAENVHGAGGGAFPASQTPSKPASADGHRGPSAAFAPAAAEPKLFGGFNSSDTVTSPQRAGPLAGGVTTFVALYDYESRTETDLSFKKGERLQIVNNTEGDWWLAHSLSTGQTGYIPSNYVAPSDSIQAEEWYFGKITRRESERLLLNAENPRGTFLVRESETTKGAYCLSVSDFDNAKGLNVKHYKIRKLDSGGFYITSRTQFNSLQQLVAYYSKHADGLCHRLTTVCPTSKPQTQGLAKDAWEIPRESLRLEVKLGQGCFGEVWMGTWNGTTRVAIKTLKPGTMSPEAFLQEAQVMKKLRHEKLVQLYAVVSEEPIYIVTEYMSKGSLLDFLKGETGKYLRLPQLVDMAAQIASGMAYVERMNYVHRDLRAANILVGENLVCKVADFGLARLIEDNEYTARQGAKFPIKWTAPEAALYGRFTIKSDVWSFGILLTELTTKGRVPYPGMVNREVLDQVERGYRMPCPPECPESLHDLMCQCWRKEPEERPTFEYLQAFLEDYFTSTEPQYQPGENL

Structure (SMILES)	IC50 [1] [µM]	IC50 [2] [µM]	Inhibition (Oryctolagus cuniculus) [%]	IC50 [3] [µM]
CC(=O)NC(Cc1ccc(OCC(=O)O)cc1)C(=O)N[C@@H](C)c1ccc(OCC2CCCCC2)c(C(N)=O)c1 (some centres undefined)	370	> 500		
CC(=O)NC(Cc1ccc(OCC(=O)O)c(P(=O)(O)O)c1)C(=O)N[C@@H](C)c1ccc(OCC2CCCCC2)c(C(N)=O)c1 (some centres undefined)		110	0	> 500
CC(C)(NC(=O)CCc1ccc(OCC(=O)O)c(P(=O)(O)O)c1)c1ccc(OCC2CCCCC2)c(C(N)=O)c1	35.4	303		> 500
CC(=O)NC(Cc1ccc(OCC(=O)O)c(P(=O)(O)O)c1)C(=O)NCc1ccc(OCC2CCCCC2)c(C(N)=O)c1 (centres undefined)	378	> 500		> 500
CC(C)(NC(=O)CCc1ccc(OCn2cnnn2)c(P(=O)(O)O)c1)c1ccc(OCC2CCCCC2)c(C(N)=O)c1	> 500	> 500		> 500
CC(C)(NC(=O)CCc1ccc(OS(=O)(=O)C(F)(F)F)c(P(=O)(O)O)c1)c1ccc(OCC2CCCCC2)c(C(N)=O)c1	> 500	> 500		> 500
CC(C)(NC(=O)CCc1ccc(O)c(P(=O)(O)O)c1)c1ccc(OCC2CCCCC2)c(C(N)=O)c1	> 500	> 500		> 500
CC(=O)NC(Cc1ccc(OCC(=O)O)c(P(=O)(O)O)c1)C(=O)NC(C)(C)c1ccc(OCC2CCCCC2)c(C(N)=O)c1 (centres undefined)	3.2			> 500
CC(=O)NC(Cc1ccc(OP(=O)(O)O)cc1)C(=O)N[C@@H](C)c1ccc(OCC2CCCCC2)c(C(N)=O)c1 (some centres undefined)				441
CC(=O)NC(Cc1ccc(OCC(=O)O)c(P(=O)(O)O)c1)C(=O)Nc1ccc(OCC2CCCCC2)c(C(N)=O)c1 (centres undefined)	> 500	> 500		> 500
CCOP(=O)(O)c1cc(CC(NC(C)=O)C(=O)N[C@@H](C)c2ccc(OCC3CCCCC3)c(C(N)=O)c2)ccc1OCC(=O)O (some centres undefined)	7.3	156		> 500
